Source: patent US7851443B2, “Combination comprising combretastatin and anticancer agents” (Aventis Pharma SA, priority 2005, dated 2010)

How the values were obtained:
[1] = system: MA13/C murine mammary adenocarcinoma tumor; experiment: Antitumor effect on advanced MA13/C murine mammary adenocarcinoma grafted subcutaneously in mice; type: in vivo, female C3H/HeN mice
Experimental: This efficacy can be quantified, for example by the log10 cell kill, which is determined by the following formula: log10 cell kill=T-C (days)/3.32×Td in which T-C represents the delay in tumor growth, which is the average time, in days, taken by the tumors of the treated group (T) to reach a predetermined value (1 g for example) and for the tumors of the control group (C) to reach the same value, and Td represents the time, in days, necessary for the volume of the tumors in the control group to double. During the exponential phase of tumor growth (T. H. Corbett et al., Cancer, 40, 2660.2680 (1977); F. M. Schabel et al., Cancer Drug Development, Part B, Methods in Cancer Research, 17, 3-51, New York, Academic Press Inc. (1979)). A product is considered to be active if the log10 cell kill is greater than or equal to 0.7.
The efficacy of the combinations of solid tumors can be determined experimentally in the following way:
(§1) The animals subjected to the experiment are female C3H/HeN mice which are bilaterally grafted subcutaneously with 30 to 60 mg of a fragment of MA13/C murine mammary adenocarcinoma tumor at day 0. In the case of an early tumor treatment, the implanted animals are distributed randomly in various groups which are or are not (controls) intended to receive the treatment(s). […] Generally, the chemotherapy begins from 3 to 22 days after the graft, according to the type of tumor and the desired tumor size. The animals are observed and weighed every day. A dose which induces a weight loss of 20% or more at the lowest point (average of the group) or a mortality of 10% or more is considered to be toxic. The tumoral activity is evaluated at the highest nontoxic dose.
The tumors are measured 2 or 3 times a week until the tumor reaches approximately 2 g or until the animal dies, if this occurs before the tumor reaches 2 g. The animals are autopsied when they are sacrificed.
The antitumor activity is determined in accordance with various recorded parameters, such as the dose (mg/kg), the method of administration, the administration time, the toxicity and the log cell kill, which depends on the delay in tumor growth and also on the tumor doubling time.

[2] = Toxicity (mortality, weight loss) in tumor-bearing mice; type: in vivo, female C3H/HeN mice
Experimental: as §1

[3] = Formula (IIa) IV 22.3 mg/kg per administration, days 21, 25, total dose 44.6 mg/kg
[4] = Formula (IIa) IV 36.0 mg/kg per administration, days 21, 25, total dose 72.0 mg/kg
[5] = Formula (IIa) IV 58.0 mg/kg per administration, days 21, 25, total dose 116.0 mg/kg
[6] = Formula (IIa) IV 93.5 mg/kg per administration, days 21, 25, total dose 187.0 mg/kg
[7] = VEGF Trap SC 10.0 mg/kg per administration, days 21, 25, total dose 20.0 mg/kg
[8] = VEGF Trap SC 25.0 mg/kg per administration, days 21, 25, total dose 50.0 mg/kg
[9] = VEGF Trap SC 40.0 mg/kg per administration, days 21, 25, total dose 80.0 mg/kg

COc1ccc(/C=C\c2cc(OC)c(OC)c(OC)c2)cc1NC(=O)C(N)CO (stereo not shown) [Formula (IIa)]
Comments [1, 3]: Inactive
Log cell kill [1, 3]: 0.4
Regression Complete [1, 3]: 0/5
Regression Partial [1, 3]: 0/5
T-C [1, 3]: 3.4 days
Time to reach tumor size of 1000 mg (median) [1, 3]: 27.2 days
Comments [1, 4]: Inactive
Log cell kill [1, 4]: 0.5
Regression Complete [1, 4]: 0/5
Regression Partial [1, 4]: 0/5
T-C [1, 4]: 4.1 days
Time to reach tumor size of 1000 mg (median) [1, 4]: 27.9 days
Comments [1, 5]: inactive
Log cell kill [1, 5]: 0.6
Regression Complete [1, 5]: 0/5
Regression Partial [1, 5]: 0/5
T-C [1, 5]: 5.1 days
Time to reach tumor size of 1000 mg (median) [1, 5]: 28.9 days
Average weight loss as % per mouse at the lowest point (day of the lowest point) [2, 3]: 0.6 (22) %
Mortality related to the agent (day of death) [2, 3]: 0/5
Average weight loss as % per mouse at the lowest point (day of the lowest point) [2, 4]: 2.1 (22) %
Mortality related to the agent (day of death) [2, 4]: 0/5
Average weight loss as % per mouse at the lowest point (day of the lowest point) [2, 5]: 3.8 (22) %
Comments (dose level) [2, 5]: HNTD
Mortality related to the agent (day of death) [2, 5]: 0/5
Average weight loss as % per mouse at the lowest point (day of the lowest point) [2, 6]: 7.4 (26) %
Comments [2, 6]: Toxic
Mortality related to the agent (day of death) [2, 6]: 1/5 (23)

VEGF Trap: fusion protein: VEGFR1 signal sequence, Ig domain D2 of VEGFR1, Ig domain D3 of VEGFR2, IgG1 Fc domain
Comments [1, 7]: Inactive
Log cell kill [1, 7]: 0.1
Regression Complete [1, 7]: 0/5
Regression Partial [1, 7]: 0/5
T-C [1, 7]: 0.4 days
Time to reach tumor size of 1000 mg (median) [1, 7]: 24.2 days
Comments [1, 8]: Inactive
Log cell kill [1, 8]: 0.4
Regression Complete [1, 8]: 0/5
Regression Partial [1, 8]: 0/5
T-C [1, 8]: 2.8 days
Time to reach tumor size of 1000 mg (median) [1, 8]: 26.6 days
Log cell kill [1, 9]: 0.1
Regression Complete [1, 9]: 0/5
Regression Partial [1, 9]: 0/5
T-C [1, 9]: 0.8 days
Time to reach tumor size of 1000 mg (median) [1, 9]: 24.6 days
Comments ([1]; VEGF Trap SC 40.0 mg/kg per administration, days 21, 25, total dose 80.0 mg/kg (MAD)): inactive
Average weight loss as % per mouse at the lowest point (day of the lowest point) [2, 7]: 0.4 (23) %
Mortality related to the agent (day of death) [2, 7]: 0/5
Average weight loss as % per mouse at the lowest point (day of the lowest point) [2, 8]: 1.8 (23) %
Mortality related to the agent (day of death) [2, 8]: 0/5
Average weight loss as % per mouse at the lowest point (day of the lowest point) [2, 9]: 1.3 (23) %
Mortality related to the agent (day of death) [2, 9]: 0/5
